Data as given in PubChem BioAssay AID2060601 (Molecular Pharmacology Branch, DTP, NCI, 2025).

System: 874868-142-R-J2-PDC complex spheroids, growth % test/control
Experiment: Anticancer human tumor 874868-142-R-J2-PDC patient-derived head and neck squamous carcinoma cell line growth inhibition [CLK]
Conditions: for IC50: curve of first compound; for viability, T/C: stronger effect = lower value
Summary of the method: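 Multi-cell-type spheroids combined patient-derived tumor cells with HUVEC endothelial cells and human mesenchymal stem cells. Paired agents were dosed in half-log steps down from about clinical Cmax, or from 10 microM where Cmax was unknown.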

[1] = second compound 0.0316 µM, first compound 0.0316 µM
[2] = second compound 0.0316 µM, first compound 0.1 µM
[3] = second compound 0.0316 µM, first compound 0.316 µM
[4] = second compound 0.0316 µM, first compound 1 µM
[5] = second compound 0.1 µM, first compound 0.0316 µM
[6] = second compound 0.1 µM, first compound 0.1 µM
[7] = second compound 0.1 µM, first compound 0.316 µM
[8] = second compound 0.1 µM, first compound 1 µM
[9] = second compound 0.316 µM, first compound 0.0316 µM
[10] = second compound 0.316 µM, first compound 0.1 µM
[11] = second compound 0.316 µM, first compound 0.316 µM
[12] = second compound 0.316 µM, first compound 1 µM
[13] = second compound 1 µM, first compound 0.0316 µM
[14] = second compound 1 µM, first compound 0.1 µM
[15] = second compound 1 µM, first compound 0.316 µM
[16] = second compound 1 µM, first compound 1 µM
[17] = second compound 3.16 µM, first compound 0.0316 µM
[18] = second compound 3.16 µM, first compound 0.1 µM
[19] = second compound 3.16 µM, first compound 0.316 µM
[20] = second compound 3.16 µM, first compound 1 µM
[21] = second compound 10 µM, first compound 0.0316 µM
[22] = second compound 10 µM, first compound 0.1 µM
[23] = second compound 10 µM, first compound 0.316 µM
[24] = second compound 10 µM, first compound 1 µM
[25] = second compound 0.0316 µM, first compound 3.16 µM
[26] = second compound 0.0316 µM, first compound 10 µM
[27] = second compound 0.1 µM, first compound 3.16 µM
[28] = second compound 0.1 µM, first compound 10 µM
[29] = second compound 0.316 µM, first compound 3.16 µM
[30] = second compound 0.316 µM, first compound 10 µM
[31] = second compound 1 µM, first compound 3.16 µM
[32] = second compound 1 µM, first compound 10 µM
[33] = second compound 3.16 µM, first compound 3.16 µM
[34] = second compound 3.16 µM, first compound 10 µM
[35] = second compound 10 µM, first compound 3.16 µM
[36] = second compound 10 µM, first compound 10 µM
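Further: spheroids exposed to the compounds for 7 days.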
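Wherever viability, T/C is given: 100% = DMSO vehicle control viability.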

Work on `COc1c(OCCCN2CCOCC2)ccc2c3n(c(=NC(=O)c4cnc(N)nc4)nc12)CCN3` + CN1CCN(c2cc(C(=O)Nc3cc4cc(-c5cnn(C)c5)ccc4cn3)ccn2)CC1 yielded an IC50 (second compound 0.0316 µM) of 7.48 nM, an IC50 (second compound 0.1 µM) of 5.7 nM and an IC50 (second compound 0.316 µM) of under 3.16 nM. It also gave an IC50 (second compound 1 µM) of under 3.16 nM, an IC50 (second compound 3.16 µM) of under 3.16 nM and an IC50 (second compound 10 µM) of under 3.16 nM. It also gave a viability, T/C (second compound 0.0316 µM, first compound 0.00316 µM) of 66.7%, a viability, T/C (second compound 0.0316 µM, first compound 0.01 µM) of 44.8% and a viability, T/C [1] of 21.2%. For the same compound, the viability, T/C [2] was 11.6%, the viability, T/C [3] was 5.06% and the viability, T/C [4] was 3.88%. It also gave a viability, T/C (second compound 0.1 µM, first compound 0.00316 µM) of 57.3%, a viability, T/C (second compound 0.1 µM, first compound 0.01 µM) of 42.7% and a viability, T/C [5] of 23.6%. The viability, T/C [6] was 9.84%, the viability, T/C [7] was 5.07% and the viability, T/C [8] was 5.77%. For the same compound, the viability, T/C (second compound 0.316 µM, first compound 0.00316 µM) was 19.1%, the viability, T/C (second compound 0.316 µM, first compound 0.01 µM) was 18.6% and the viability, T/C [9] was 10.7%. It also gave a viability, T/C [10] of 4.09%, a viability, T/C [11] of 3.08% and a viability, T/C [12] of 1.68%. It also gave a viability, T/C (second compound 1 µM, first compound 0.00316 µM) of 0.4%, a viability, T/C (second compound 1 µM, first compound 0.01 µM) of 0.24% and a viability, T/C [13] of 0.24%. It also gave a viability, T/C [14] of 0.07%, a viability, T/C [15] of 0.34% and a viability, T/C [16] of 0.22%. For the same compound, the viability, T/C (second compound 3.16 µM, first compound 0.00316 µM) was 0.17%, the viability, T/C (second compound 3.16 µM, first compound 0.01 µM) was 0.16% and the viability, T/C [17] was 0.17%. The viability, T/C [18] was 0.36%, the viability, T/C [19] was 0.16% and the viability, T/C [20] was 0.19%. For the same compound, the viability, T/C (second compound 10 µM, first compound 0.00316 µM) was 0.07%, the viability, T/C (second compound 10 µM, first compound 0.01 µM) was 0.15% and the viability, T/C [21] was 1.27%. It also gave a viability, T/C [22] of 0.4%, a viability, T/C [23] of 0.14% and a viability, T/C [24] of 0.18%.

Work on `CC(=O)O[C@H]1C(=O)[C@@]2(C)[C@H]([C@H](OC(=O)c3ccccc3)[C@]3(O)C[C@H](OC(=O)[C@H](O)[C@@H](NC(=O)c4ccccc4)c4ccccc4)C(C)=C1C3(C)C)[C@]1(OC(C)=O)CO[C@@H]1C[C@@H]2O` + CN1CCN(c2cc(C(=O)Nc3cc4cc(-c5cnn(C)c5)ccc4cn3)ccn2)CC1 yielded an IC50 (second compound 0.0316 µM) of under 31.6 nM, an IC50 (second compound 0.1 µM) of under 31.6 nM and an IC50 (second compound 0.316 µM) of under 31.6 nM. The IC50 (second compound 1 µM) was under 31.6 nM, the IC50 (second compound 3.16 µM) was under 31.6 nM and the IC50 (second compound 10 µM) was under 31.6 nM. It also gave a viability, T/C [1] of 26.6%, a viability, T/C [2] of 18.9% and a viability, T/C [3] of 19.1%. It also gave a viability, T/C [4] of 22%, a viability, T/C [25] of 21.3% and a viability, T/C [26] of 27.4%. The viability, T/C [5] was 28.1%, the viability, T/C [6] was 19.6% and the viability, T/C [7] was 20%. The viability, T/C [8] was 18.1%, the viability, T/C [27] was 14.7% and the viability, T/C [28] was 27.9%. The viability, T/C [9] was 13%, the viability, T/C [10] was 15.6% and the viability, T/C [11] was 15.3%. For the same compound, the viability, T/C [12] was 9.43%, the viability, T/C [29] was 17.7% and the viability, T/C [30] was 17.3%. The viability, T/C [13] was 0.22%, the viability, T/C [14] was 0.23% and the viability, T/C [15] was 0.5%. The viability, T/C [16] was 0.59%, the viability, T/C [31] was 0.23% and the viability, T/C [32] was 0.27%. The viability, T/C [17] was 0.16%, the viability, T/C [18] was 0.16% and the viability, T/C [19] was 2.82%. The viability, T/C [20] was 0.21%, the viability, T/C [33] was 0.18% and the viability, T/C [34] was 0.15%. For the same compound, the viability, T/C [21] was 0.12%, the viability, T/C [22] was 0.18% and the viability, T/C [23] was 1.66%. The viability, T/C [24] was 0.18%, the viability, T/C [35] was 2.53% and the viability, T/C [36] was 1.6%.

Compound `O=c1[nH]cc(F)c(=O)[nH]1` + CN1CCN(c2cc(C(=O)Nc3cc4cc(-c5cnn(C)c5)ccc4cn3)ccn2)CC1 has an IC50 (second compound 0.0316 µM) of 2320 nM, an IC50 (second compound 0.1 µM) of 667 nM and an IC50 (second compound 0.316 µM) of under 31.6 nM. For the same compound, the IC50 (second compound 1 µM) was under 31.6 nM, the IC50 (second compound 3.16 µM) was under 31.6 nM and the IC50 (second compound 10 µM) was under 31.6 nM. The viability, T/C [1] was 99.7%, the viability, T/C [2] was 74.5% and the viability, T/C [3] was 83.8%. It also gave a viability, T/C [4] of 70.8%, a viability, T/C [25] of 41.6% and a viability, T/C [26] of 37%. The viability, T/C [5] was 66.7%, the viability, T/C [6] was 79% and the viability, T/C [7] was 62.4%. For the same compound, the viability, T/C [8] was 43.7%, the viability, T/C [27] was 24.8% and the viability, T/C [28] was 31%. For the same compound, the viability, T/C [9] was 18.2%, the viability, T/C [10] was 17.2% and the viability, T/C [11] was 12.4%. The viability, T/C [12] was 10.2%, the viability, T/C [29] was 12.2% and the viability, T/C [30] was 10.7%. The viability, T/C [13] was 0.31%, the viability, T/C [14] was 0.25% and the viability, T/C [15] was 0.25%. For the same compound, the viability, T/C [16] was 0.29%, the viability, T/C [31] was 0.14% and the viability, T/C [32] was 0.21%. For the same compound, the viability, T/C [17] was 0.18%, the viability, T/C [18] was 0.21% and the viability, T/C [19] was 0.22%. The viability, T/C [20] was 0.18%, the viability, T/C [33] was 0.5% and the viability, T/C [34] was 0.21%. It also gave a viability, T/C [21] of 0.08%, a viability, T/C [22] of 0.14% and a viability, T/C [23] of 0.14%. For the same compound, the viability, T/C [24] was 0.15%, the viability, T/C [35] was 0.29% and the viability, T/C [36] was 0.17%.
